Experimental findings from ChEMBL document CHEMBL1135007, “Synthesis and pharmacological evaluation of a new class of peroxisome proliferator-activated receptor modulators” (Bioorg Med Chem Lett, 2002) are described below.

A word on the pKi: it is the Ki on a negative log10 scale, so that one unit is a factor of ten. A low value points to a large Ki. Broadly, the pEC50 is the negative decadic logarithm of the EC50, by convention in mol/L.

Experiment [1] deals with T1, Peroxisome proliferator-activated receptor alpha (Homo sapiens, UniProt Q07869).
T1 sequence (Q07869 whole entry): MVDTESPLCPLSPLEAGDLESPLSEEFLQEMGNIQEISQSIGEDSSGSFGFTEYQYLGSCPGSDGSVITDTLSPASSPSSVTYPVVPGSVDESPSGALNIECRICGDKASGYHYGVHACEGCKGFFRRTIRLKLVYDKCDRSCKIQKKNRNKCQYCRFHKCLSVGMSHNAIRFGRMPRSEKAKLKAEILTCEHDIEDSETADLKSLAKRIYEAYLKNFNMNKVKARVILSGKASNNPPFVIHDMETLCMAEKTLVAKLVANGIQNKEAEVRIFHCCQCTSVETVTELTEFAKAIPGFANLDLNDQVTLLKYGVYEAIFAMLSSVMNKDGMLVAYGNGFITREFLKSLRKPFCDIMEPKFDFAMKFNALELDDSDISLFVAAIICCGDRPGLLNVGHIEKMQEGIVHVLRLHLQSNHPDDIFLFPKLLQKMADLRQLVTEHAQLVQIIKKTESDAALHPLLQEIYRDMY
In words: Ligand binding affinity was determined by displacement of a tritiated tracer by the unlabeled compound to a GST-PPAR fusion protein for Peroxisome proliferator activated receptor alpha containing residues.

For experiment [2], the target named is T2, Peroxisome proliferator-activated receptor gamma (Homo sapiens, UniProt P37231).
T2 sequence (P37231 whole entry): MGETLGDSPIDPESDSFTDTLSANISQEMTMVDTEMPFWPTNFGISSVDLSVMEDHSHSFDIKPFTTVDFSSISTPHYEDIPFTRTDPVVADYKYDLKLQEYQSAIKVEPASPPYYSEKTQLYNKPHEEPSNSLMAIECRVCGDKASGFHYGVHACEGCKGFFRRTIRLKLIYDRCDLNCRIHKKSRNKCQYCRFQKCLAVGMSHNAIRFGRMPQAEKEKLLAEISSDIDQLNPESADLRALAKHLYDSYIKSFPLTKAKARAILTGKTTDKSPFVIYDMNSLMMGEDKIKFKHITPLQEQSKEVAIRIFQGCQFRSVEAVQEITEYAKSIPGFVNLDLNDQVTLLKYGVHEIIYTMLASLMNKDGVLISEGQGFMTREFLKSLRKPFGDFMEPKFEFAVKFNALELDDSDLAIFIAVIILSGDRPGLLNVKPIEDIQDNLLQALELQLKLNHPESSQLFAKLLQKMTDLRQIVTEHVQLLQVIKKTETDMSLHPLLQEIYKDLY
Description: Transactivation potency was measured by luciferase activity in Caco- 2/TC7 cells transiently co-transfected for the fusion-protein Gal4-PPAR gamma. It is filed as functional, cell-based.

In experiment [3] the target is T2, Peroxisome proliferator-activated receptor gamma. Description: Ligand binding affinity was determined by displacement of a tritiated tracer by the unlabeled compound to a GST-PPAR fusion protein for Peroxisome proliferator activated receptor gamma containing residues.
The target in experiment [4] is T1, Peroxisome proliferator-activated receptor alpha. In words: Transactivation potency was measured by luciferase activity in Caco- 2/TC7 cells transiently co-transfected for the fusion-protein Gal4-PPAR alpha. It is filed as functional, cell-based.

Structures are written as SMILES. pEC50, pKi: −log10 of the molar value.

In the case of `O=C(Nc1ccc(Oc2ncccn2)cc1C(=O)O)c1ccc(Cl)cc1Cl`, the pKi in experiment [1] was < 4.00; in experiment [3] it was 7.00. Moreover, the pEC50 in experiment [2] was 5.89; in experiment [4], < 4.00.
`O=C(Nc1ccc(Oc2ccc([N+](=O)[O-])cn2)cc1C(=O)O)c1ccc(Cl)cc1Cl`: the negative-log Ki (pKi) in experiment [1] was < 4.00; in experiment [3], 6.74. Moreover, the negative logarithm of the EC50 (pEC50) in experiment [2] is 6.40; in experiment [4], < 4.00.
As to `O=C(Nc1ccc(-c2ccsc2)cc1C(=O)O)c1ccc(Cl)cc1Cl`, the negative-log Ki (pKi) in experiment [1] was 4.55; in experiment [3] it was 6.05. Moreover, the results for the negative-log EC50 (pEC50) in experiment [2] and in experiment [4] were 6.15 and 4.92, respectively.
Turning to `CCOc1cccc(-c2ccc(NC(=O)c3ccc(Cl)cc3Cl)c(C(=O)O)c2)c1`, the pKi is < 4.00 in experiment [1] and 5.92 in experiment [3]. Moreover, the negative logarithm of the EC50 (pEC50) is 6.52 in experiment [2] and < 4.00 in experiment [4].
As to `Cc1ccc(NC(=O)c2ccc(Cl)cc2Cl)c(C(=O)O)c1`, the pKi in experiment [1] was 4.52; in experiment [3] it was 5.66. Further, the pEC50 in experiment [2] was 5.80; in experiment [4], 5.02.
Consider `O=C(Nc1ccc(-c2ccco2)cc1C(=O)O)c1ccc(Cl)cc1Cl`, for which the pKi was 4.66 in experiment [1] and 6.30 in experiment [3]. In addition, the values for the pEC50 in experiment [2] and in experiment [4] were 6.00 and 5.00, respectively.
In the same order, the values of `O=C(Nc1ccc(-c2cccc3cccnc23)cc1C(=O)O)c1ccc(Cl)cc1Cl` are < 4.00, 6.15, 6.52 and < 4.00.
Turning to `O=C(Nc1ccc(Oc2cncc(Cl)n2)cc1C(=O)O)c1ccc(Cl)cc1Cl`, the pKi in experiment [1] is 4.68; in experiment [3] it was 6.80. Besides, the negative logarithm of the EC50 (pEC50) in experiment [2] was 6.35; in experiment [4], < 4.00.
Regarding `O=C(Nc1ccc(OCCc2cccs2)cc1C(=O)O)c1ccc(Cl)cc1Cl`, the negative logarithm of the Ki (pKi) is < 4.00 in experiment [1] and 6.00 in experiment [3]. Moreover, the pEC50 in experiment [2] was 6.15; in experiment [4], < 4.00.
Take `CSCCOc1ccc(NC(=O)c2ccc(Cl)cc2Cl)c(C(=O)O)c1`: the negative logarithm of the Ki (pKi) is 4.72 in experiment [1] and 5.80 in experiment [3]. For the same compound, the negative logarithm of the EC50 (pEC50) in experiment [2] is 6.22; in experiment [4], 5.60.
`CCOc1ccc(COc2ccc(NC(=O)c3ccc(Cl)cc3Cl)c(C(=O)O)c2)cc1`: the results for the pKi in experiment [1] and in experiment [3] were < 4.00 and 5.44, respectively. Besides, the values for the pEC50 in experiment [2] and in experiment [4] were 6.15 and < 4.00, respectively.
As to `O=C(Nc1ccc(OCc2cccs2)cc1C(=O)O)c1ccc(Cl)cc1Cl`, the results for the pKi in experiment [1] and in experiment [3] were 4.60 and 6.40, respectively. For the same compound, the pEC50 in experiment [2] was 6.52; in experiment [4], 5.30.
Take `O=C(O)c1cccc(-c2ccc(NC(=O)c3ccc(Cl)cc3Cl)c(C(=O)O)c2)c1`: the figures for the negative-log Ki (pKi) in experiment [1] and in experiment [3] were 4.17 and 5.85, respectively. In addition, the negative logarithm of the EC50 (pEC50) in experiment [2] and in experiment [4] was < 4.00 throughout.
For `O=C(Nc1ccc(Oc2ncccc2[N+](=O)[O-])cc1C(=O)O)c1ccc(Cl)cc1Cl`, the pKi is < 4.00 in experiment [1] and 6.77 in experiment [3]. The pEC50 in experiment [2] was 6.40; in experiment [4], < 4.00.
As to `O=C(Nc1ccc(OCCc2ccsc2)cc1C(=O)O)c1ccc(Cl)cc1Cl`, the values for the pKi in experiment [1] and in experiment [3] were 4.70 and 6.22, respectively. The pEC50 in experiment [2] was 6.10; in experiment [4], 5.42.
For the compound `O=C(Nc1ccc(OCCc2ccccn2)cc1C(=O)O)c1ccc(Cl)cc1Cl`, the negative-log Ki (pKi) was < 4.00 in experiment [1] and 5.82 in experiment [3]. In experiment [2], this compound gave a negative-log EC50 (pEC50) of 5.49.
